# Laboratory results taken from ChEMBL document CHEMBL4673288, “Structure-activity relationship of novel acridone derivatives as antiproliferative agents” (Bioorg Med Chem, 2021).
# Calls of active or inactive are those of the source. The calls are words filed in the database; no cut-off is given here.
# Experiments:
# [1] = test system: HCT-116; assay: Antiproliferative activity against human HCT-116 cells assessed as reduction in cell viability incubated for 72 hrs by SRB assay; assay type: functional, cell-based; settings: HCT-116, 72 h
# [2] = test system: SW480; assay: Antiproliferative activity against human SW480 cells assessed as reduction in cell viability incubated for 72 hrs by SRB assay; assay type: functional, cell-based; settings: SW480, 72 h
# [3] = test system: HeLa; assay: Antiproliferative activity against human HeLa cells assessed as reduction in cell viability incubated for 72 hrs by SRB assay; assay type: functional, cell-based
# [4] = target: DNA topoisomerase 2-alpha (Homo sapiens) (UniProt P11388); assay: Inhibition of recombinant human topoisomerase 2 alpha-mediated relaxation of supercoiled pBR322 DNA at 200 uM incubated for 30 mins by ethidium bromide staining based agarose gel electrophoresis method
# DNA topoisomerase 2-alpha (Homo sapiens), sequence (P11388 whole entry): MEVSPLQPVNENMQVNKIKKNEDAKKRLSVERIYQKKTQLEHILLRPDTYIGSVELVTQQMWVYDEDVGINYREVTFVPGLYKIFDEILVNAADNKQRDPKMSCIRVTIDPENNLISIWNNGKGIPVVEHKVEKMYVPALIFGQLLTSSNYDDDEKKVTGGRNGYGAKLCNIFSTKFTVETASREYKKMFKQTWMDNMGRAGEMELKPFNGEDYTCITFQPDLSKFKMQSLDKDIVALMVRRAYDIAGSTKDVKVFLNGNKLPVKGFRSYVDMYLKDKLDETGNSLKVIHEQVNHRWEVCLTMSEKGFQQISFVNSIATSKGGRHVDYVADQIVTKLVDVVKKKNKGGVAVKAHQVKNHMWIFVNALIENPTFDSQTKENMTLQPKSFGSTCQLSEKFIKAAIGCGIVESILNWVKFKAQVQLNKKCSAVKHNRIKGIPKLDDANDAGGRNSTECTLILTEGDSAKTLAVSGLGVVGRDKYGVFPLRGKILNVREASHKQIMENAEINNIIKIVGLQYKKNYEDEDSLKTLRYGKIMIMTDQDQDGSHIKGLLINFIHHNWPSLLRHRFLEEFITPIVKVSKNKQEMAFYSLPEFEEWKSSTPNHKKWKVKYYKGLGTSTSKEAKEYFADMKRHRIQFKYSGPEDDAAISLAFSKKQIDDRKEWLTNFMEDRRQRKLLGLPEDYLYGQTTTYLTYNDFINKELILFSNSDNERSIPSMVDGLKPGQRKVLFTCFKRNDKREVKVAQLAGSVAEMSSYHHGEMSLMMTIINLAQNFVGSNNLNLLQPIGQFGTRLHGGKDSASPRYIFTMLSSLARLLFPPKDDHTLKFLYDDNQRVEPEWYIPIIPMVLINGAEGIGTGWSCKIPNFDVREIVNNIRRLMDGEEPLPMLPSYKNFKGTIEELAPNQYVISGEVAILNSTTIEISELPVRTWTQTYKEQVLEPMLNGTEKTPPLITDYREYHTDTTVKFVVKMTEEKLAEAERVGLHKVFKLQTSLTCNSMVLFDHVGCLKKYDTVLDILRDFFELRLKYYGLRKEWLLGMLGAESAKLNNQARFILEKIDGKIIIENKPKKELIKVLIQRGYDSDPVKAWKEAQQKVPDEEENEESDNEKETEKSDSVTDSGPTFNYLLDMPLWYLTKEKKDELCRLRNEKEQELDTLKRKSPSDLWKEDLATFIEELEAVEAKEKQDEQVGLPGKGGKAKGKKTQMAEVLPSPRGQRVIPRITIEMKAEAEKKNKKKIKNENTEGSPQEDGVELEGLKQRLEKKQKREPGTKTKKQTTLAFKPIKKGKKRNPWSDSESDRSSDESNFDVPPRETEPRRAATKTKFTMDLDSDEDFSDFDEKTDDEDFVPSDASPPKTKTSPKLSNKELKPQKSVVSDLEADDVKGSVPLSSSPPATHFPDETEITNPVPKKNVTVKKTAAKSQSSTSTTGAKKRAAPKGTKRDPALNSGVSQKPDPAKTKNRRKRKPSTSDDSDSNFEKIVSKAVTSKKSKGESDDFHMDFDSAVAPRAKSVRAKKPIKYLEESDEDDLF
# [5] = test system: K562; assay: Antiproliferative activity against human K562 cells assessed as reduction in cell viability incubated for 48 hrs by MTT assay; assay type: functional, cell-based; settings: K562, 48 h
# [6] = test system: HepG2; assay: Antiproliferative activity against human HepG2 cells assessed as reduction in cell viability incubated for 48 hrs by MTT assay; assay type: functional, cell-based; settings: HepG2, 48 h
IC50 [1],IC50 [2],IC50 [3],inhibition [4],IC50 [5],SMILES,IC50 [6]
5.7 µM,8.8 µM,1.7 µM,Active,,COc1ccc2[nH]c3c([N+](=O)[O-])ccc(Nc4ccc(CN5CCCCC5)cc4)c3c(=O)c2c1,
12.4 µM,> 20 µM,> 20 µM,,,COc1ccc2[nH]c3c([N+](=O)[O-])ccc(NCc4ccc(O)cc4)c3c(=O)c2c1,
> 20 µM,> 20 µM,> 20 µM,,,COc1ccc2[nH]c3c(N)ccc(NCCc4cccc(C(F)(F)F)c4)c3c(=O)c2c1,
> 20 µM,> 20 µM,> 20 µM,,,O=c1c2cc(O)ccc2[nH]c2c([N+](=O)[O-])ccc(NCc3ccc(O)cc3)c12,
,,,,0.77 µM,CCCCCCCCCCCOc1ccc(OCc2ccc(C(=O)N[C@@H](CCC(=O)O)C(=O)O)cc2)c2c1C(=O)c1ccccc1C2=O,
1.7 µM,0.6 µM,,Active,10.8 µM,COc1cc([C@@H]2c3cc4c(cc3[C@@H](O[C@@H]3O[C@@H]5CO[C@@H](C)O[C@H]5[C@H](O)[C@H]3O)[C@H]3COC(=O)[C@H]23)OCO4)cc(OC)c1O [ETOPOSIDE],
> 20 µM,> 20 µM,> 20 µM,Active,,COc1cc(Nc2ccc([N+](=O)[O-])c3[nH]c4ccc(O)cc4c(=O)c23)cc(OC)c1,
> 12.5 µM,> 25 µM,> 12.5 µM,,,COc1ccc(Nc2ccc(N)c3[nH]c4ccc(OC)cc4c(=O)c23)cc1,
> 20 µM,> 20 µM,> 20 µM,,,COc1ccc2[nH]c3c([N+](=O)[O-])ccc(NCc4cccs4)c3c(=O)c2c1,
1.5 µM,1.1 µM,4.8 µM,Active,,CN1CCN(c2ccc(Nc3ccc([N+](=O)[O-])c4[nH]c5ccc(O)cc5c(=O)c34)cc2)CC1,
4.6 µM,8.6 µM,6.2 µM,,,COc1ccc2[nH]c3c(N)ccc(Nc4ccc(OC)c(OC)c4)c3c(=O)c2c1,
> 20 µM,> 20 µM,> 20 µM,inactive,,COc1ccc(Nc2ccc([N+](=O)[O-])c3[nH]c4ccc(O)cc4c(=O)c23)cc1OC,
> 20 µM,> 20 µM,> 20 µM,,,COc1ccc2[nH]c3c([N+](=O)[O-])ccc(Nc4ccc(N5CCOCC5)cc4)c3c(=O)c2c1,
> 20 µM,6.5 µM,> 20 µM,,,COc1ccc2[nH]c3c([N+](=O)[O-])ccc(NCCc4ccc(O)c(O)c4)c3c(=O)c2c1,
0.4 µM,0.3 µM,0.6 µM,Active,,CN1CCN(Cc2ccc(Nc3ccc([N+](=O)[O-])c4[nH]c5ccc(O)cc5c(=O)c34)cc2)CC1,
> 20 µM,8.8 µM,4.5 µM,,,COc1ccc(CCNc2ccc([N+](=O)[O-])c3[nH]c4ccc(F)cc4c(=O)c23)cc1OC,
> 20 µM,> 20 µM,> 20 µM,inactive,,O=c1c2cc(O)ccc2[nH]c2c([N+](=O)[O-])ccc(NCc3cccs3)c12,
> 20 µM,> 20 µM,> 20 µM,Active,,O=c1c2cc(O)ccc2[nH]c2c([N+](=O)[O-])ccc(Nc3ccc(O)cc3)c12,
> 20 µM,> 20 µM,> 20 µM,Active,,O=c1c2cc(O)ccc2[nH]c2c([N+](=O)[O-])ccc(NCc3ccsc3)c12,
3.9 µM,2.3 µM,7.6 µM,Active,,O=c1c2cc(O)ccc2[nH]c2c([N+](=O)[O-])ccc(Nc3ccc(Cn4cncn4)cc3)c12,
> 20 µM,12.4 µM,12.4 µM,,,COc1ccc2[nH]c3c([N+](=O)[O-])ccc(NCCc4cccc(C(F)(F)F)c4)c3c(=O)c2c1,
5.9 µM,2.4 µM,6.4 µM,,,O=c1c2cc(O)ccc2[nH]c2c([N+](=O)[O-])ccc(Nc3ccc(N4CCOCC4)cc3)c12,
> 20 µM,> 20 µM,> 20 µM,,,COc1ccc2[nH]c3c([N+](=O)[O-])ccc(NCc4ccco4)c3c(=O)c2c1,
> 20 µM,15.7 µM,16.8 µM,Active,,COc1ccc2[nH]c3c(N)ccc(Nc4ccc(-n5cncn5)cc4)c3c(=O)c2c1,

IC50 [1],IC50 [2],IC50 [3],inhibition [4],IC50 [5],SMILES,IC50 [6]
1 µM,2 µM,0.9 µM,Active,,COc1ccc2[nH]c3c([N+](=O)[O-])ccc(NCCCN4CCN(C)CC4)c3c(=O)c2c1,
> 20 µM,11.7 µM,7.6 µM,,,O=c1c2cc(O)ccc2[nH]c2c([N+](=O)[O-])ccc(NCCc3cccc(C(F)(F)F)c3)c12,
8.8 µM,15.6 µM,8.8 µM,,,COc1ccc2[nH]c3c(N)ccc(NCCc4ccc(OC)c(OC)c4)c3c(=O)c2c1,
2.5 µM,2.3 µM,1.1 µM,Active,,O=c1c2cc(O)ccc2[nH]c2c([N+](=O)[O-])ccc(Nc3ccc(CN4CCCCC4)cc3)c12,
> 20 µM,> 20 µM,> 20 µM,Active,,COc1cccc(Nc2ccc([N+](=O)[O-])c3[nH]c4ccc(O)cc4c(=O)c23)c1,
11.8 µM,17.1 µM,7.5 µM,Active,,COc1ccc2[nH]c3c([N+](=O)[O-])ccc(Nc4ccc(O)cc4)c3c(=O)c2c1,
,,,,,CCCCCCCCCCCCOc1ccc(OCCCCNCCCCNCCCNCCC)c2c1C(=O)c1ccccc1C2=O,8.8 µM
> 20 µM,15.5 µM,12.2 µM,Active,,O=c1c2cc(O)ccc2[nH]c2c([N+](=O)[O-])ccc(NCc3ccco3)c12,
> 20 µM,> 20 µM,> 20 µM,Active,,COc1ccc(Nc2ccc([N+](=O)[O-])c3[nH]c4ccc(O)cc4c(=O)c23)cc1,
> 20 µM,> 20 µM,10.5 µM,,,O=c1c2cc(F)ccc2[nH]c2c([N+](=O)[O-])ccc(NCc3ccc(O)cc3)c12,
> 20 µM,> 20 µM,> 20 µM,,,COc1ccc(CCNc2ccc([N+](=O)[O-])c3[nH]c4ccc(O)cc4c(=O)c23)cc1OC,
0.7 µM,1.2 µM,1.2 µM,Active,,CN1CCN(CCNc2ccc([N+](=O)[O-])c3[nH]c4ccc(O)cc4c(=O)c23)CC1,
> 20 µM,> 20 µM,> 20 µM,,,COc1ccc2[nH]c3c([N+](=O)[O-])ccc(Nc4ccc(N5CCN(C)CC5)cc4)c3c(=O)c2c1,
> 20 µM,> 20 µM,> 20 µM,,,COc1ccc2[nH]c3c([N+](=O)[O-])ccc(NCc4cccnc4)c3c(=O)c2c1,
17.8 µM,3.8 µM,17.5 µM,,,COc1ccc2[nH]c3c(N)ccc(Nc4ccc(N5CCOCC5)cc4)c3c(=O)c2c1,
> 50 µM,> 50 µM,17.2 µM,,,COc1ccc(CCNc2ccc(N)c3[nH]c4ccc(O)cc4c(=O)c23)cc1OC,
> 50 µM,> 20 µM,> 20 µM,,,Nc1ccc(NCCc2cccc(C(F)(F)F)c2)c2c(=O)c3cc(O)ccc3[nH]c12,
> 50 µM,> 50 µM,> 50 µM,,,COc1ccc2[nH]c3c(N)ccc(NCCc4ccc(O)c(O)c4)c3c(=O)c2c1,
17.5 µM,11.3 µM,12.3 µM,,,COc1ccc(CCNc2ccc(N)c3[nH]c4ccc(F)cc4c(=O)c23)cc1OC,
> 20 µM,19.7 µM,12.8 µM,,,COc1ccc2[nH]c3c([N+](=O)[O-])ccc(NCCc4ccc(OC)c(OC)c4)c3c(=O)c2c1,
> 20 µM,> 20 µM,> 20 µM,,,O=c1c2cc(O)ccc2[nH]c2c([N+](=O)[O-])ccc(NCc3ccc(F)cc3)c12,
> 20 µM,> 20 µM,> 20 µM,inactive,,O=c1c2cc(O)ccc2[nH]c2c([N+](=O)[O-])ccc(NCc3cccnc3)c12,
,,,,1.82 µM,CCCCCCCCCCCOc1ccc(OCc2ccc(C(=O)N[C@@H](Cc3ccccc3)C(=O)O)cc2)c2c1C(=O)c1ccccc1C2=O,

SMILES,IC50 [1],IC50 [2],IC50 [3],inhibition [4],IC50 [5],IC50 [6]
O=C1c2c(O)ccc(O)c2C(=O)c2c(NCCNCCO)ccc(NCCNCCO)c21 [MITOXANTRONE],,,,,2.35 µM,15.3 µM
CCN(CC)CCNc1ccc2ncn3c4ccc(O)cc4c(=O)c1c23 [C-1311],0.3 µM,0.48 µM,,,,
